Measurements taken from paper PMC9959244, “Revisiting the Solubility–Permeability Relationship with Hydrophobic Drug Umifenovir in Pluronic Solutions: Impact of pH and Co-Solvent” (Pharmaceutics, 2023).
Values after ≈ are worked out from the molar mass of the structure shown. Where two headings read alike, the source gives them in different places.

Assays:
[1] = PXRD analysis of solid residuals after solubility experiments; assay type: physicochemical
Protocol: The powder XRD data were recorded under ambient conditions on a D2 Phaser (Bragg Brentano) diffractometer (Bruker AXS, Karlsruhe, Germany) with a copper X-ray source (λCuKα1 = 1.5406Å) and a high-resolution position-sensitive LYNXEYE XE-T detector. The samples were placed into the plate sample holders and rotated at a speed of 15 rpm during the data acquisition.
In order to trace possible transformations of the UMF base, the solid residuals left after each solubility experiment were isolated, dried under air and subjected to PXRD analysis together with the raw UMF base and UMF∙HCl∙H2O. […] Importantly, all the parameters obtained for the acidic solutions (solubility, permeability, micellization, and aggregation characteristics) refer to UMF∙HCl∙H2O, in spite of the fact that initially the UMF base was subjected to the experiments.

[2] = parameters: method as in earlier work; settings: cited from earlier work
[3] = Phase solubility, shake-flask method with UV spectrophotometry; assay type: physicochemical; settings: for solubility at 3 days: aqueous buffer (shake-flask)
Protocol: The solubility of UMF was measured in pure buffers pH 2.0 and pH 7.4, with the additions of 1.5 w/v%, 4.0 w/v%, 5.5 w/v%, 7.0 w/v% of F-127, and in all these solutions in the presence of 10% and 20% ethanol at 310.15 ± 0.1 K by the standard shake-flask method. The concentrations of F-127 were chosen purposely to avoid the formation of a gel (at approximately 20% w/w in water at 310.15 K). Since the aim of the study was to evaluate the possibility of preparation of pharmaceutical products based on UMF, the experimental temperature was selected to be as very close to the normal temperature of a healthy human. […] The experimental results are presented as an average of at least three replicated experiments.

[4] = In vitro permeability, Franz diffusion cell; assay type: in vitro ADME
Protocol: The permeability coefficients of UMF were measured in a Franz diffusion cell of a vertical type (PermeGear, Inc., Hellertown, PA, USA) at 310.15 ± 0.1 K. The experimental setup is fully described and illustrated in our previous study. All the experiments were carried out with the help of a regenerated cellulose membrane with a molecular weight cut-off (MWCO) of 12–14 kDa (Standard Grade RC Dialysis Membrane, Flat Width 45 mm) pretreated with water for 30 min and dried under air. A cellulose membrane MWCO 6–8 kDa was additionally used for several experiments. The membrane effective surface area was 0.785 cm^2. It was placed between the donor (7 mL of the stock UMF solution) and acceptor (pure solvent without UMF—blank solution) chambers. In the case of the pH 2.0 donor solution, the blank solution at pH 7.4 was applied in the acceptor chamber in order to simulate the compound transfer to the blood plasma. Samples of 0.5 mL were withdrawn every 30 min from the acceptor chamber and replaced with an equal amount of pure buffer pH 7.4. The solutions were analyzed using a plate-type spectrophotometer (Spectramax 190; Molecular devices, Molecular Devices Corporation, California, USA) and a 96-well UV black plate (Costar). The plot of the cumulative amount of the compound (Q) permeated through the membrane of effective surface area (A) versus time (t) was constructed and the apparent permeability coefficient (Papp) was calculated by the equation:Papp = J/C0(1) where J is the flux through the membrane derived as a slope of the permeation plot (J = dQ/(A·dt)), and C0 is the UMF concentration in the donor solution. Papp values were taken as an average of at least 3 or more experiments.

Solid phase after dissolution (PXRD) ([1]; all the systems with buffer pH 7.4): No transformations | Solubility increase by ethanol vs buffer pH 7.4 ([3]; 10% EtOH): 1.13 fold | Solubility increase by ethanol vs buffer pH 7.4 ([3]; 20% EtOH): 1.8 fold | Greater solubility in acidic medium (pH 2.0) as compared to alkaline one (pH 7.4) ([3]; 310.15 K): 44.4 fold | solubility at 3 days ([3]; 37 °C, pH 2, aqueous buffer, thermodynamic from solid, Solubility SUMF·103, buffer pH 2.0, 0 w/v% F-127, 310.15 K, value is S×10^3, heading: Solubility SUMF·103): 710 ± 20 µM (≈ 339 µg/mL) | solubility at 3 days ([3]; 37 °C, pH 2, aqueous buffer, thermodynamic from solid, pH 2.0, 310.15 K, read-out: Solubility in pure buffer): 711 µM (≈ 339 µg/mL) | solubility at 3 days ([3]; 37 °C, pH 2, aqueous with cosolvent or surfactant or cyclodextrin, thermodynamic from solid, Solubility SUMF·103, buffer pH 2.0, 1.5 w/v% F-127, 310.15 K, value is S×10^3, heading: Solubility SUMF·103): 2050 ± 40 µM (≈ 979 µg/mL) | solubility at 3 days ([3]; 37 °C, pH 2, aqueous with cosolvent or surfactant or cyclodextrin, thermodynamic from solid, Solubility SUMF·103, buffer pH 2.0, 4.0 w/v% F-127, 310.15 K, value is S×10^3, heading: Solubility SUMF·103): 3990 ± 80 µM (≈ 1900 µg/mL) | solubility at 3 days ([3]; 37 °C, pH 2, aqueous with cosolvent or surfactant or cyclodextrin, thermodynamic from solid, Solubility SUMF·103, buffer pH 2.0, 5.5 w/v% F-127, 310.15 K, value is S×10^3, heading: Solubility SUMF·103): 5610 ± 40 µM (≈ 2680 µg/mL) | solubility at 3 days ([3]; 37 °C, pH 2, aqueous with cosolvent or surfactant or cyclodextrin, thermodynamic from solid, Solubility SUMF·103, buffer pH 2.0, 7.0 w/v% F-127, 310.15 K, value is S×10^3, heading: Solubility SUMF·103): 6340 ± 30 µM (≈ 3030 µg/mL) | solubility at 3 days ([3]; 37 °C, pH 7.4, aqueous buffer, thermodynamic from solid, buffer pH 7.4, 0 w/v% F-127, 310.15 K, value is S×10^4, read-out: Solubility SUMF·104): 16 ± 0.1 µM (≈ 7.64 µg/mL) | solubility at 3 days ([3]; 37 °C, pH 7.4, aqueous with cosolvent or surfactant or cyclodextrin, thermodynamic from solid, 7.0% F-127 + 20% EtOH, buffer pH 7.4, 310.15 K, read-out: Maximum solubility value): 1180 µM | solubility at 3 days ([3]; 37 °C, pH 7.4, aqueous with cosolvent or surfactant or cyclodextrin, thermodynamic from solid, buffer pH 7.4 +10% EtOH, 0 w/v% F-127, 310.15 K, value is S×10^4, read-out: Solubility SUMF·104): 18 ± 0.1 µM (≈ 8.59 µg/mL) | solubility at 3 days ([3]; 37 °C, pH 7.4, aqueous with cosolvent or surfactant or cyclodextrin, thermodynamic from solid, buffer pH 7.4 +10% EtOH, 1.5 w/v% F-127, 310.15 K, value is S×10^4, read-out: Solubility SUMF·104): 194 ± 1 µM (≈ 92.6 µg/mL) | solubility at 3 days ([3]; 37 °C, pH 7.4, aqueous with cosolvent or surfactant or cyclodextrin, thermodynamic from solid, buffer pH 7.4 +10% EtOH, 4.0 w/v% F-127, 310.15 K, value is S×10^4, read-out: Solubility SUMF·104): 477 ± 3 µM (≈ 228 µg/mL) | solubility at 3 days ([3]; 37 °C, pH 7.4, aqueous with cosolvent or surfactant or cyclodextrin, thermodynamic from solid, buffer pH 7.4 +10% EtOH, 5.5 w/v% F-127, 310.15 K, value is S×10^4, read-out: Solubility SUMF·104): 689 ± 7 µM (≈ 329 µg/mL) | solubility at 3 days ([3]; 37 °C, pH 7.4, aqueous with cosolvent or surfactant or cyclodextrin, thermodynamic from solid, buffer pH 7.4 +10% EtOH, 7.0 w/v% F-127, 310.15 K, value is S×10^4, read-out: Solubility SUMF·104): 806 ± 7 µM (≈ 385 µg/mL) | solubility at 3 days ([3]; 37 °C, pH 7.4, aqueous with cosolvent or surfactant or cyclodextrin, thermodynamic from solid, buffer pH 7.4 +20% EtOH, 0 w/v% F-127, 310.15 K, value is S×10^4, read-out: Solubility SUMF·104): 30 ± 1 µM (≈ 14.3 µg/mL) | solubility at 3 days ([3]; 37 °C, pH 7.4, aqueous with cosolvent or surfactant or cyclodextrin, thermodynamic from solid, buffer pH 7.4 +20% EtOH, 1.5 w/v% F-127, 310.15 K, value is S×10^4, read-out: Solubility SUMF·104): 276 ± 3 µM (≈ 132 µg/mL) | solubility at 3 days ([3]; 37 °C, pH 7.4, aqueous with cosolvent or surfactant or cyclodextrin, thermodynamic from solid, buffer pH 7.4 +20% EtOH, 4.0 w/v% F-127, 310.15 K, value is S×10^4, read-out: Solubility SUMF·104): 700 ± 5 µM (≈ 334 µg/mL) | solubility at 3 days ([3]; 37 °C, pH 7.4, aqueous with cosolvent or surfactant or cyclodextrin, thermodynamic from solid, buffer pH 7.4 +20% EtOH, 5.5 w/v% F-127, 310.15 K, value is S×10^4, read-out: Solubility SUMF·104): 983 ± 11 µM (≈ 469 µg/mL) | solubility at 3 days ([3]; 37 °C, pH 7.4, aqueous with cosolvent or surfactant or cyclodextrin, thermodynamic from solid, buffer pH 7.4, 1.5 w/v% F-127, 310.15 K, value is S×10^4, read-out: Solubility SUMF·104): 174 ± 3 µM (≈ 83.1 µg/mL) | solubility at 3 days ([3]; 37 °C, pH 7.4, aqueous with cosolvent or surfactant or cyclodextrin, thermodynamic from solid, buffer pH 7.4, 4.0 w/v% F-127, 310.15 K, value is S×10^4, read-out: Solubility SUMF·104): 393 ± 3 µM (≈ 188 µg/mL) | solubility at 3 days ([3]; 37 °C, pH 7.4, aqueous with cosolvent or surfactant or cyclodextrin, thermodynamic from solid, buffer pH 7.4, 5.5 w/v% F-127, 310.15 K, value is S×10^4, read-out: Solubility SUMF·104): 586 ± 2 µM (≈ 280 µg/mL) | solubility at 3 days ([3]; 37 °C, pH 7.4, aqueous with cosolvent or surfactant or cyclodextrin, thermodynamic from solid, buffer pH 7.4, 7.0 w/v% F-127, 310.15 K, value is S×10^4, read-out: Solubility SUMF·104): 696 ± 4 µM (≈ 332 µg/mL) | solubility at 3 days ([3]; pH 7.4, pH 7.4, 310.15 K, read-out: Solubility in pure buffer): 15.8 µM (≈ 7.54 µg/mL) | Solubility enhancement by 7.0% F-127 ([3]; buffer pH 2.0, vs without F-127): 8.9 fold | Solubility enhancement by 7.0% F-127 ([3]; buffer pH 7.4 + 10% EtOH, vs without F-127): 44.8 fold | Solubility enhancement by 7.0% F-127 ([3]; buffer pH 7.4 + 20% EtOH, vs without F-127): 39.3 fold | Solubility enhancement by 7.0% F-127 ([3]; buffer pH 7.4, vs without F-127): 43.5 fold | Permeability coefficient in pure buffer pH 7.4 greater than in pH 2.0 [4]: 2.1 fold | Permeability increase by EtOH in buffer pH 7.4 ([4]; 10% EtOH): 1.4 fold | Permeability increase by EtOH in buffer pH 7.4 ([4]; 20% EtOH): 1.2 fold | Permeability reduction by 4.0% F-127 vs pure buffer ([4]; buffer pH 7.4): 2.35 fold | Papp in 20% EtOH + 1.5% F-127 lower than in buffer pH 7.4 + 1.5% F-127 ([4]; pH 7.4): 5.1 fold | Papp in 20% EtOH + 1.5% F-127 lower than in buffer pH 7.4 +20% EtOH ([4]; pH 7.4): 10.8 fold | Papp in 20% EtOH + 1.5% F-127 lower than in pure buffer pH 7.4 ([4]; pH 7.4): 9.1 fold
Structure (SMILES): CCOC(=O)c1c(CSc2ccccc2)n(C)c2cc(Br)c(O)c(CN(C)C)c12 [UMF, 6-bromo-4-dimethylaminomethyl-5-hydroxy-1-methyl-2-phenylthiomethyl indole-3-carboxylic acid ethyl ester]
Solid phase after dissolution (PXRD) ([1]; acidic buffer (pH 2.0)): transformed into the apparently more stable hydrochloride monohydrate | pKa [2]: 6.0
